Reference: patent US4920117A, “4,5,5a,6-tetrahydro-3H-isoxazolo(5,4,3-kl)acridines, pharmaceutical compositions and use” (Hoechst-Roussel Pharmaceuticals Inc., priority 1989, dated 1990)
pIC50: −log10 of the molar value.

Columns and labels:
acetylcholinesterase = acetylcholinesterase (Homo sapiens, UniProt P22303); experiment: Cholinesterase inhibition assay (photometric method of Ellman et al.); assay type: biochemical; settings: read-out: Cholinesterase Inhibition IC50 (molar conc.)
[1] = system: scopolamine induced memory deficit in mice; experiment: Dark Avoidance Assay (reversal of scopolamine induced memory deficit); assay type: in vivo; settings: retest after 24 hours
Description: This utility can also be ascertained by determining the ability of these compounds to restore cholinergically deficient memory in the Dark Avoidance Assay. In this assay mice are tested for their ability to remember an unpleasant stimulus for a period of 24 hours. A mouse is placed in a chamber that contains a dark compartment; a strong incadescent light drives it to the dark compartment, where an electric shock is administered through metal plates on the floor. The animal is removed from the testing apparatus and tested again, 24 hours later, for the ability to remember the electric shock.
If scopolamine, an anticholinergic that is known to cause memory impairment, is administered before an animal's initial exposure to the test chamber, the animal re-enters the dark compartment shortly after being placed in the test chamber 24 hours later. This effect of scopolamine is blocked by an active test compound, resulting in a greater interval before re-entry into the dark compartment.
The results for an active compound are expressed as the percent of a group of animals in which the effect of scopolamine is blocked, as manifested by an increased interval between being placed in the test chamber and re-entering the dark compartment.

[2] = system: 2-phenyl-1,4-benzoquinone-induced writhing in mice; experiment: 2-phenyl-1,4-benzoquinone-induced writhing test in mice (analgesia); assay type: in vivo
Text: The compounds of Formula I of the present invention are useful as analgesic agents due to their ability to alleviate pain in mammals. […] Exptl. Biol. Med., 95, 729 (1957)].

acetylcholinesterase, sequence (P22303 32-614): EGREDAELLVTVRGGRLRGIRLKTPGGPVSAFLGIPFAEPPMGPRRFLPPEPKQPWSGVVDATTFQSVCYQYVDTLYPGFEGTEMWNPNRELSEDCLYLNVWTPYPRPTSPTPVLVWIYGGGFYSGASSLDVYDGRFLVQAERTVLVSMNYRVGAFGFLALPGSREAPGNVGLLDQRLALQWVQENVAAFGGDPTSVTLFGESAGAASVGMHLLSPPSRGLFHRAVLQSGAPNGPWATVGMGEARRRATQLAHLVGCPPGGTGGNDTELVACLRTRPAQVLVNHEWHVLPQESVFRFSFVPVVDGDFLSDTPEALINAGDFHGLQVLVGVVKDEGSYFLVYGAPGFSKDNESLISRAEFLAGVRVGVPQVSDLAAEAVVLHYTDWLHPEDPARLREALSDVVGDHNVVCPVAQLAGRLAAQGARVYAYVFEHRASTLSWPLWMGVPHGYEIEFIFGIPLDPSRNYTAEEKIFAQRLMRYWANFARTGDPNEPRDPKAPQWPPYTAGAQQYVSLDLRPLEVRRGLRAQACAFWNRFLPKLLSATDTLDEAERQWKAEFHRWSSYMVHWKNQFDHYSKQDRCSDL

c1ccc2c(c1)NC1CCCc3onc-2c31 (stereo not shown) [4,5,5a,6-Tetrahydro-3H-isoxazolo[5,4,3-kl]acridine]
pIC50 (acetylcholinesterase): 4.89

c1ccc2c(c1)nc1c3c(onc32)CCC1 [4,5-Dihydro-3H-isoxazolo[5,4,3-kl]acridine]
pIC50 (acetylcholinesterase): 5.41 | % of animals with scopolamine induced memory deficit reversal ([1]; 0.63 mg/kg body weight): 20%

C=CCN1c2ccccc2-c2noc3c2C1CCC3 (stereo not shown) [6-(2-Propenyl)-4,5,5a,6-tetrahydro-3H-isoxazolo[5,4,3-kl]acridine]
% of animals with scopolamine induced memory deficit reversal ([1]; 1.25 mg/kg body weight): 27%

CCNC(=O)N1c2ccccc2-c2noc3c2C1CCC3 (stereo not shown) [6-Ethylaminocarbonyl-4,5,5a,6-tetrahydro-3H-isoxazolo[5,4,3-kl]acridine]
Analgesic PQW % Inhibition of Writhing at 20 mg/kg., S.C. [2]: 44%

C#CCNC(=O)N1c2ccccc2-c2noc3c2C1CCC3 (stereo not shown) [N-(2-Propynyl)-4,5,5a,6-tetrahydro-3H-isoxazolo-[5,4,3-kl]acridine-6-carboxamide]
Analgesic PQW % Inhibition of Writhing at 20 mg/kg., S.C. [2]: 29%

O=C(NCCN1CCOCC1)N1c2ccccc2-c2noc3c2C1CCC3 (stereo not shown) [N-[2-(4-Morpholinyl)ethyl]-4,5,5a,6-tetrahydro-3H-isoxazolo[5,4,3-kl]acridine-6-carboxamide]
Analgesic PQW % Inhibition of Writhing at 20 mg/kg., S.C. [2]: 52%

O=C(NCC#CCN1CCCC1)N1c2ccccc2-c2noc3c2C1CCC3 (stereo not shown) [N-[4-(1-Pyrrolidinyl)-2-butyn-1-yl]-4,5,5a,6-tetrahydro-3H-isoxazolo[5,4,3-kl]acridine-6-carboxamide]
Analgesic PQW % Inhibition of Writhing at 20 mg/kg., S.C. [2]: 33%

CNC(=O)Oc1ccc2c(c1)[C@]1(C)CCN(C)[C@@H]1N2C [Physostigmine, reference compound]
% of animals with scopolamine induced memory deficit reversal ([1]; 0.31 mg/kg body weight, reference): 20%

CCC(=O)O[C@](Cc1ccccc1)(c1ccccc1)[C@H](C)CN(C)C [Propoxyphene, reference compound]
Analgesic PQW % Inhibition of Writhing ([2]; 3.9 mg/kg, s.c., reference compound): 50%
